Test results as given in patent publication US20230011869A1 (Hoffmann-La Roche Inc., priority 2018, published 2023).
Structures can show the parent of a compound that is named as a salt. Where two headings read alike, the source gives them in different places.

System: Acinetobacter baumannii ATCC17961
Test: Antimicrobial susceptibility testing: 90% growth inhibitory concentration (IC90) determination, Iso-Sensitest broth
Format: cell-based
Conditions: Acinetobacter baumannii, ATCC17961, 16 h, read-out: ATCC17961 IC90
Experimental: Antimicrobial Susceptibility Testing:
90% Growth Inhibitory Concentration (IC90) Determination
The in vitro antimicrobial activity of the compounds was determined according to the following procedure:
The assay used a 10-points Iso-Sensitest broth medium to measure quantitatively the in vitro activity of the compounds against Acinetobacter baumannii ATCC17978 and Acinetobacter baumannii ATCC17961.
Stock compounds in DMSO were serially twofold diluted (e.g. range from 50 to 0.097 μM final concentration) in 384 wells microtiter plates and inoculated with 49 μl the bacterial suspension in Iso-Sensitest medium to have a final cell concentration of 5×10^(5) CFU/ml in a final volume/well of 50 ul/well. Microtiter plates were incubated at 35±2° C.
Bacterial cell growth was determined with the measurement of optical density at λ=600 nm each 20 minutes over a time course of 16 h. Growth inhibition was calculated during the logarithmic growth of the bacterial cells with determination of the concentration inhibiting 50% (IC50) and 90% (IC90) of the growth.
Table 1 provides the 90% growth inhibitory concentrations (IC90) in micromoles per liter of the compounds of present invention obtained against the strain Acinetobacter baumannii ATCC17978 and Acinetobacter baumannii ATCC17961.

[1] = 90% growth inhibitory concentration, Acinetobacter baumannii ATCC17961, Iso-Sensitest broth, OD 600 nm over 16 h

Compound | IC90 [1] | IC90
COC[C@@H]1CN[C@H](C(=O)N2CCN(C(=O)c3ccc(Nc4nccn5c(-c6ccc(OC)c(F)c6F)cnc45)cc3C)CC2)C1 [Example 84, (4-(4-((3-(2,3-difluoro-4-methoxyphenyl)imidazo[1,2-a]pyrazin-8-yl)amino)-2-methylbenzoyl)piperazin-1-yl)((2S,4S)-4-(methoxymethyl)pyrrolidin-2-yl)methanone hydrochloride] | – | 76 nM
COc1ccc(-c2cnc3c(Nc4ccc(C(=O)N5CCC(C(=O)NCC(O)CNC(N)=O)CC5)c(C)c4)nccn23)c(F)c1F (stereo not drawn) [Example 88, 1-(4-((3-(2,3-difluoro-4-methoxyphenyl)imidazo[1,2-a]pyrazin-8-yl)amino)-2-methylbenzoyl)-N-(2-hydroxy-3-ureidopropyl)piperidine-4-carboxamide] | 195 nM | –
COc1ccc(-c2cnc3c(Nc4ccc(C(=O)N5CCN(C(=O)[C@H](CCCN)NC(=O)[C@@H](N)CCC(=O)O)CC5)c(C)c4)nccn23)c(F)c1F [Example 535, (4S)-4-amino-5-[[2S)-5-amino-1-[4-[4-[[3-(2,3-difluoro-4-methoxyphenyl)imidazo[1,2-a]pyrazin-8-yl]amino]-2-methylbenzoyl]piperazin-1-yl]-1-oxopentan-2-yl]amino]-5-oxopentanoic acid; hydrochloride] | 1920 nM | –
COc1ccc(-c2cnc3c(Nc4ccc(C(=O)N5CCN(C(=O)[C@@]6(O)CNCC[C@@H]6O)CC5)c(C)c4)nccn23)c(F)c1F [Example 290, [4-[[3-(2,3-difluoro-4-methoxyphenyl)imidazo[1,2-a]pyrazin-8-yl]amino]-2-methylphenyl]-[4-[(3R,4S)-3,4-dihydroxypiperidine-3-carbonyl]piperazin-1-yl]methanone; hydrochloride] | – | 109 nM
COc1ccc(-c2cnc3c(Nc4ccc(C(=O)N5C[C@H]6CNC[C@@H](C5)O6)c(C)c4)nccn23)c(F)c1F [Example 581, ((1R,5S)-9-oxa-3,7-diazabicyclo[3.3.1]nonan-3 - yl)(4-((3-(2,3-difluoro-4-methoxyphenyl)imidazo[1,2-a]pyrazin-8-yl)amino)-2-methylphenyl)methanone dihydrochloride] | 464 nM | –
COc1cc(Nc2nccn3c(-c4ccc(OC)c(F)c4F)cnc23)ccc1C(=O)N1CCN(C(=O)[C@H]2C[C@H](O)CN2)CC1 (stereo in doubt) [Example 586, (4-(4-((3-(2,3-difluoro-4-methoxyphenyl)imidazo[1,2-a]pyrazin-8-yl)amino)-2-methoxybenzoyl)piperazin-1-yl)((2R,4S)-4-hydroxypyrrolidin-2-yl)methanone formate] | – | 312 nM
COc1ccc(-c2cnc3c(Nc4ccc(C(=O)N5CCN(C(=O)[C@H](CCCNC(=N)N)NC(=O)[C@@H](N)CCC(=O)O)CC5)c(C)c4)nccn23)c(F)c1F [Example 555, (S)-4-amino-5-(((S)-1-(4-(4-((3-(2,3-difluoro-4-methoxyphenyl)imidazo[1,2-a]pyrazin-8-yl)amino)-2-methylbenzoyl)piperazin-1-yl)-5-guanidino-1-oxopentan-2-yl)amino)-5-oxopentanoic acid trihydrochloride] | 704 nM | –
COc1ccc(-c2cnc3c(Nc4cc(F)c(C(=O)N5CCN(C(=O)[C@@H]6C[C@@H](O)CN6)CC5)cc4F)nccn23)c(F)c1F [Example 244, (4-(4-((3-(2,3-difluoro-4-methoxyphenyl)imidazo[1,2-a]pyrazin-8-yl)amino)-2,5-difluorobenzoyl)piperazin-1-yl)((2S,4R)-4-hydroxypyrrolidin-2-yl)methanone] | 2730 nM | –
COc1ccc(-c2cnc3c(Nc4ccc(C(=O)N5CCN(C(=O)[C@H]6NCC[C@H]6O)CC5)c(C)c4)nccn23)c(F)c1F [Example 78, (4-(4-((3-(2,3-difluoro-4-methoxyphenyl)imidazo[1,2-a]pyrazin-8-yl)amino)-2-methylbenzoyl)piperazin-1-yl)((2S,3R)-3-hydroxypyrrolidin-2-yl)methanone hydrochloride] | – | 87 nM

Second part, led by results:

IC90 [1] | Compound | IC90
47 nM | Cc1cc(Nc2nccn3c(-c4ccc(OCC#N)c(F)c4Cl)cnc23)ccc1C(=O)N1CCN(C(=O)[C@@H]2CCNC[C@@H]2O)CC1 (relative stereo) [Example 223, 2-[3-chloro-2-fluoro-4-[8-[4-[4-[(3R,4R)-3-hydroxypiperidine-4-carbonyl]piperazine-1-carbonyl]-3-methyl-anilino]imidazo[1,2-a]pyrazin-3-yl]phenoxy] acetonitrile formate] | –
46 nM | Cc1cc(Nc2nccn3c(-c4ccc(OCC#N)c(F)c4F)cnc23)ccc1C(=O)N1CCN(C(=O)[C@@H]2CCNC[C@H]2O)CC1 [Example 190, 2-[2,3-difluoro-4-[8-[4-[4-[(3S,4R)-3-hydroxypiperidine-4-carbonyl]piperazine-1-carbonyl]-3-methyl-anilino]imidazo[1,2-a]pyrazin-3-yl]phenoxy] acetonitrile formate] | –
36 nM | Cc1cc(Nc2nccn3c(-c4ccc(OCC#N)c(F)c4F)cnc23)ccc1C(=O)N1CCN(C(=O)C2(O)CCNCC2)CC1 [Example 206, 2-[2,3-difluoro-4-[8-[4-[4-(4-hydroxypiperidine-4-carbonyl)piperazine-1-carbonyl]-3-methyl-anilino]imidazo[1,2-a]pyrazin-3-yl]phenoxy] acetonitrile formate] | –
39 nM | Cc1cc(Nc2nccn3c(-c4ccc(OCC#N)c(F)c4F)cnc23)ccc1C(=O)N1CCN(C(=O)[C@@H]2CCNC2)CC1 [Example 198, 2-[2,3-difluoro-4-[8-[3-methyl-4-[4-[(3R)-pyrrolidine-3-carbonyl]piperazine-1-carbonyl]anilino]imidazo[1,2-a]pyrazin-3-yl]phenoxy] acetonitrile formate] | –
88 nM | Cc1cc(Nc2nccn3c(-c4ccc(OCC#N)c(F)c4Cl)cnc23)ccc1C(=O)N1CCC(C(=O)N2CCN[C@H](CO)C2)CC1 [Example 538, 2-[3-chloro-2-fluoro-4-[8-[4-[4-[(3S)-3-(hydroxymethyl)piperazine-1-carbonyl]piperidine-1-carbonyl]-3-methylanilino]imidazo[1,2-a]pyrazin-3-yl]phenoxy]acetonitrile; for-mic acid] | –
60 nM | Cc1cc(Nc2nccn3c(-c4ccc(OCC#N)c(F)c4F)cnc23)ccc1C(=O)N1CCN(C(=O)[C@H]2CCNC[C@H]2O)CC1 [Example 189, 2-[2,3-difluoro-4-[8-[4-[4-[(3S,4S)-3-hydroxypiperidine-4-carbonyl]piperazine-1-carbonyl]-3-methyl-anilino]imidazo[1,2-a]pyrazin-3-yl]phenoxy] acetonitrile formate] | –
192 nM | COc1ccc(-c2cnc3c(Nc4ccc(C(=O)N5CCN(S(=O)(=O)[C@H]6CCNC6)CC5)c(C)c4)nccn23)c(F)c1F [Example 297, [4-[[3-(2,3-difluoro-4-methoxyphenyl)imidazo[1,2-a]pyrazin-8-yl]amino]-2-methylphenyl]-[4-[(3S)-pyrrolidin-3-yl]sulfonylpiperazin-1-yl]methanone] | –
51 nM | Cc1cc(Nc2nccn3c(-c4ccc(OCC#N)c(Cl)c4F)cnc23)ccc1C(=O)N1CCN(C(=O)[C@@H]2C[C@@H](O)CN2)CC1 [Example 283, 2-[2-chloro-3-fluoro-4-[8-[4-[4-[(2S,4R)-4-hydroxypyrrolidine-2-carbonyl]piperazine-1-carbonyl]-3-methylanilino]imidazo[1,2-a]pyrazin-3-yl]phenoxy]acetonitrile] | –
117 nM | COc1ccc(-c2cnc3c(Nc4ccc(C(=O)N5CCN(C(=O)[C@@H]6NC[C@@H](O)[C@H]6O)CC5)c(C)c4)nccn23)c(F)c1F [Example 235, (4-(4-((3-(2,3-difluoro-4-methoxyphenyl)imida-zo[1,2-a]pyrazin-8-yl)amino)-2-methylbenzoyl)piper-azin-1-yl)((2R,3S,4R)-3,4-dihydroxypyrrolidin-2-yl)methanone] | –
116 nM | COc1ccc(-c2cnc3c(Nc4ccc(C(=O)N5CCC(C(=O)NCC(O)CN6CCNCC6)CC5)c(C)c4)nccn23)c(F)c1F (stereo not drawn) [Example 90, 1-(4-((3-(2,3-difluoro-4-methoxyphenyl)imidazo[1,2-a]pyrazin-8-yl)amino)-2-methylbenzoyl)-N-(2-hydroxy-3-(piperazin-1-yl)propyl)piperidine-4-carboxamide hydrochloride] | –
649 nM | COc1ccc(-c2cnc3c(Nc4ccc(C(=O)N5CCN(C(=O)[C@@]67CNCC[C@@H]6OC(C)(C)O7)CC5)c(C)c4)nccn23)c(F)c1F (stereo in doubt) [Example 578, rel-(4-(4-((3-(2,3-difluoro-4-methoxyphenyl)imidazo[1,2-a]pyrazin-8-yl)amino)-2-methylbenzoyl)piperazin-1-yl)((3aR,7aS)-2,2-dimethyltetrahydro-[1,3]dioxolo[4,5-c]pyridin-3a(4H)-yl)methanone] | –
98 nM | COc1ccc(-c2cnc3c(Nc4ccc(C(=O)N5CCN(C(=O)[C@H]6NC[C@H]7C[C@H]76)CC5)c(C)c4)nccn23)c(F)c1F (racemic) [Example 82, (4-((1R,2S,5S)-3-azabicyclo[3.1.0]hexane-2-carbonyl)piperazin-1-yl)(4-((3-(2,3-difluoro-4-methoxyphenyl)imidazo[1,2-a]pyrazin-8-yl)amino)-2-methylphenyl)methanone hydrochloride] | –
